Activity calls are given as the source filed them.
Legend:
[1] = biological target: Cyclin-dependent kinase 5/CDK5 activator 1 (Homo sapiens, UniProt Q00535); assay: CDK5/p35 kinase inhibitors, dose response, biochemical, cherry-picked samples, set 2 (AID 504545)
HEK293 = assay: Fluorescence-based counterscreen for potentiators or agonists of NPY-Y2: cell-based high-throughput dose response assay to identify inhibitors of cyclic nucleotide gated ion channel (CNGC) activity. In this assay, the parental HEK293 cell line transfected with a cyclic-nucleotide gated ion channel (CNGC)-based cAMP sensor is used to measure inhibition of isoproterenol-induced CNGC activity by test compound.; assay type: functional; settings: Homo sapiens;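 note: stimulus is 1 µM isoproterenol at EC100 plus PDE inhibitor Ro 20-1724 at 25 µM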
[2] = biological target: Neuropeptide Y receptor type 2 (Homo sapiens, UniProt P49146); assay: Fluorescence-based cell-based high-throughput dose response assay for agonists of NPY-Y2. [Related pubchem assays: 1703 (Screening assay (CNGC inhibitors).), 1359 (Screening assay (NPY-Y2 potentiators or agonists).), 1304 (Screening assay (NPY-Y1 potentiators or agonists).), 1710 (Screening assay (NPY-Y2 agonists).), 1791 (Summary AID.)]; assay type: functional
[3] = inhibitors of intracellular T. cruzi replication, confirmation, NIH3T3 host cells, beta-gal luminescence (AID 2044); assay type: functional, cell-based;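 note: intracellular parasites grown in NIH/3T3 mouse fibroblasts as host cells; luminescent beta-galactosidase reporter signal from transgenic T. cruzi replicating inside host cells; inhibitors lower the luminescence signal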
[4] = biological target: Neuropeptide Y receptor type 1 (Homo sapiens, UniProt P25929); assay: Fluorescence-based counterscreen for agonists of NPY-Y2: cell-based high-throughput dose response assay for agonists of NPY-Y1.; assay type: functional
[5] = cytotoxicity toward NIH3T3 fibroblasts, dose response, counter-screen, cell-based, ATP luminescence, mouse fibroblasts (AID 2010); assay type: functional;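 note: cells exposed to compound for about 90 hours before reading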
[6] = biological target: T1, Polyadenylate-binding protein 1 (Homo sapiens, UniProt P11940); assay: PABP1 MLLE–PAM2 interaction inhibitors, dose response, miRNA deadenylation inhibitor project, biochemical, fluorescence polarization, Cy5-PAM2 peptide, secondary (AID 602260); assay type: functional; settings: read-out: IC50_Mean
[7] = biological target: T1, Polyadenylate-binding protein 1; assay: PABP1 MLLE–PAM2 binding inhibitor potency, dose response, biochemical, fluorescence polarization, FITC-PAM2 peptide (AID 602259); assay type: functional; settings: read-out: IC50_Mean
[8] = biological target: T2, Eukaryotic translation initiation factor 2-alpha kinase 3 (Homo sapiens, UniProt Q9NZJ5); assay: Dose response cell-based high-throughput screening assay to measure PERK inhibition. [Related pubchem assays: 1416 ]; assay type: functional
[9] = biological target: T2, Eukaryotic translation initiation factor 2-alpha kinase 3; assay: Counterscreen assay for PERK inhibitors: Dose response cell-based high throughput screening assay to measure inhibition of PERK at 6 hours. [Related pubchem assays: 1522, 1416 ]; assay type: functional
[10] = Cytotoxicity screening for potential Inhibitors of Bacterial Capsule Biogenesis. [Related pubchem assays (depositor defined):AID488970]; assay type: functional
[11] = biological target: Metabotropic glutamate receptor 4 (Rattus norvegicus, UniProt P31423); assay: Modulation of the Metabotropic Glutamate Receptor mGluR4: Rat PAM Potency. [Related pubchem assays (depositor defined):AID2437, AID2807]; assay type: functional
X-box-binding protein 1 = X-box-binding protein 1 (Homo sapiens, UniProt P17861); assay type: functional, Cricetulus griseus;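 note: confirmatory dose-response counter-screen serving a CHOP assay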
[12] = NIH-3T3 fibroblast cytotoxicity, dose response, cytotoxicity control, cell-based, fluorescence, Alamar Blue, secondary assay (AID 2327); assay type: functional;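 note: NIH-3T3 mouse fibroblasts cultured with fluconazole at 8 µg/mL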
[13] = A cytotoxicity screen of small molecule inhibitors of the PhoP region in Salmonella typhi identified in the primary screen. [Related pubchem assays: 1850, 1864, 1985 ]; assay type: functional
[14] = C. albicans growth with fluconazole, confirmation, fluorescence, retest (AID 2467); assay type: functional, cell-based
[15] = THP-1 cell cytotoxicity, dose response, cytotoxicity control for non-replicating M. tuberculosis project (AID 489025); assay type: functional
[16] = HepG2 cell cytotoxicity, dose response, cytotoxicity control for non-replicating M. tuberculosis project (AID 489018); assay type: functional; settings: Mycobacterium tuberculosis
[17] = cytotoxicity in NIH/3T3 mouse fibroblasts, dose response, cytotoxicity control, cell-based, mouse embryonic fibroblasts, dry powder, set 2 (AID 493247); assay type: functional; settings: Fibroblast
Trypanosoma cruzi = assay: growth inhibition of intracellular Trypanosoma cruzi, dose response, cell-based, plate reader, dry powder, set 3 (AID 493197); assay type: functional
[18] = Vero E6 cell cytotoxicity, dose response, cytotoxicity control for non-replicating M. tuberculosis project, secondary assay (AID 492998); assay type: functional, VeroE6; settings: Vero C1008
cells [19] = assay type: functional
INS1 = assay: beta cell apoptosis inhibitors, cytokine rescue, dose response, luminescence, retest (AID 449756); assay type: functional, cell-based; settings: Rattus norvegicus;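 note: cell death triggered by IL-1 beta plus TNF-alpha plus IFN-gamma mixture; protective hits raise ATP signal compared with cytokine alone wells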
cells [20] = assay: cells
[21] = biological target: Photoreceptor-specific nuclear receptor (Homo sapiens, UniProt Q9Y5X4); assay type: functional;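 note: potency for compounds that break the NR2E3 corepressor complex and count as activators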
[22] = biological target: Peroxisome proliferator-activated receptor gamma/Nuclear receptor corepressor 2 (Homo sapiens, UniProt P37231+Q9Y618); assay type: functional

T2 sequence (Q9NZJ5 whole entry): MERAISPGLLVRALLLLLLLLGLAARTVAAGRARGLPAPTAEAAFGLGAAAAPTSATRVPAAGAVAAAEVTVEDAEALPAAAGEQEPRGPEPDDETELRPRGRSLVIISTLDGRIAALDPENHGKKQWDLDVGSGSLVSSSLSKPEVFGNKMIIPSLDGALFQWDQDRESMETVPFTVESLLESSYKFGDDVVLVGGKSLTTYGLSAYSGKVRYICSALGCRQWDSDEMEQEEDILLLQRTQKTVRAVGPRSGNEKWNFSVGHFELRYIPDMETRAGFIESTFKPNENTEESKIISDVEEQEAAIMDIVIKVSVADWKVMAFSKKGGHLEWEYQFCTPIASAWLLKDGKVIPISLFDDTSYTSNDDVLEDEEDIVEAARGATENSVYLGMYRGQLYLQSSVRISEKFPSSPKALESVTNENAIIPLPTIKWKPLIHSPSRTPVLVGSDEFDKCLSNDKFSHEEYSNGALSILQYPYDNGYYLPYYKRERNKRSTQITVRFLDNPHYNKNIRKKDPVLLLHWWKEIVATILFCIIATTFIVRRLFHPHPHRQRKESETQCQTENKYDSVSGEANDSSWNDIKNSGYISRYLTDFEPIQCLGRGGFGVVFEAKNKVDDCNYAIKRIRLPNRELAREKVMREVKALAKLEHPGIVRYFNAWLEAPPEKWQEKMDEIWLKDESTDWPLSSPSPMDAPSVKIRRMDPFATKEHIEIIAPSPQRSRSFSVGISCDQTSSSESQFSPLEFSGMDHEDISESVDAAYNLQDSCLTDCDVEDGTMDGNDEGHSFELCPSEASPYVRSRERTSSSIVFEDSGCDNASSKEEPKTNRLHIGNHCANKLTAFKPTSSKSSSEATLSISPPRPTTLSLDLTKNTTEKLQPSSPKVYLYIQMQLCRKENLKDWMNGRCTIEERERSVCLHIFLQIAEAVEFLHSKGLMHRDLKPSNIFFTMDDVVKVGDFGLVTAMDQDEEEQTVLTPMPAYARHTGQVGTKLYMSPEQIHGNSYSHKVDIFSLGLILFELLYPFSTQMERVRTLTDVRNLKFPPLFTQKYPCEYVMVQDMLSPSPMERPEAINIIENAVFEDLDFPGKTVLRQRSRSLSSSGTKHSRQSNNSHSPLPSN
T1 sequence (P11940 whole entry): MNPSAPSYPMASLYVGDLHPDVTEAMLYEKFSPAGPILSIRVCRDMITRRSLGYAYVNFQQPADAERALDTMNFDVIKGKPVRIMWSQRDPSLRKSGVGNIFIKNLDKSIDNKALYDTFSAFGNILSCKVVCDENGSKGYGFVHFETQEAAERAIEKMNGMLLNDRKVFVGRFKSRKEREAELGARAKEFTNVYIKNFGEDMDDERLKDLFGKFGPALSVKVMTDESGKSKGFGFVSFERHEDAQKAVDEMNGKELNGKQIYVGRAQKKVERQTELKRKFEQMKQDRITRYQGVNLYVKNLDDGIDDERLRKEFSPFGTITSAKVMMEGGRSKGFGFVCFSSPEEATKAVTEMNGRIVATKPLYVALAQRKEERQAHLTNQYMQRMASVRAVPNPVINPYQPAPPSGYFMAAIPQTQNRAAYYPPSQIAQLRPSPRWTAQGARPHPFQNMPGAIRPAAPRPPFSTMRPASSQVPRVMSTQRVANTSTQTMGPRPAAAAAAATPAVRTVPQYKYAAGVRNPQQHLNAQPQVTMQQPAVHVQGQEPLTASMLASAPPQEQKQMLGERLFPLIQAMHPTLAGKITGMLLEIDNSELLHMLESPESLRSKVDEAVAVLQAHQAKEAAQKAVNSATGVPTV
Sequence of Photoreceptor-specific nuclear receptor (Q9Y5X4 whole entry): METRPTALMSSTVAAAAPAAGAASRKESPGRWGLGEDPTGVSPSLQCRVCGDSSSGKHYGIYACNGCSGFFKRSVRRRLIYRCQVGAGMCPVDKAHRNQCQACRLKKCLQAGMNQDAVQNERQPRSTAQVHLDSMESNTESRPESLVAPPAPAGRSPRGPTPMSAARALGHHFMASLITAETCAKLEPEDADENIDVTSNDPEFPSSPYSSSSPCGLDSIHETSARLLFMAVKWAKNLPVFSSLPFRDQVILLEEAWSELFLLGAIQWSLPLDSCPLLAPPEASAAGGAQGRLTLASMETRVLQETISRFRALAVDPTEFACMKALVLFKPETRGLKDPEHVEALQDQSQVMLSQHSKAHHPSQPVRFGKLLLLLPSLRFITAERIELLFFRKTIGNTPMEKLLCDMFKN
Sequence of Neuropeptide Y receptor type 2 (P49146 whole entry): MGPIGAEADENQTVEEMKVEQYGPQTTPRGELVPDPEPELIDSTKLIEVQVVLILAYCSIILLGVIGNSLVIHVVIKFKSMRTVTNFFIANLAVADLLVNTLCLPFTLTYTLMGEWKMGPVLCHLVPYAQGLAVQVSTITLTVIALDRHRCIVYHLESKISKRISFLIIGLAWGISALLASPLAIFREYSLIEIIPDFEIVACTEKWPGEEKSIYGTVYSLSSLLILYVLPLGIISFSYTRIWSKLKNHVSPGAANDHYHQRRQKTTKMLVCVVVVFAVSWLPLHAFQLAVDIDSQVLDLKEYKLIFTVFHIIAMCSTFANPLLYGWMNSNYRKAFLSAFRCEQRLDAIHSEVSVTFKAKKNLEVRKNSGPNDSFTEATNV
Sequence of Cyclin-dependent kinase 5/CDK5 activator 1 (Q00535 whole entry): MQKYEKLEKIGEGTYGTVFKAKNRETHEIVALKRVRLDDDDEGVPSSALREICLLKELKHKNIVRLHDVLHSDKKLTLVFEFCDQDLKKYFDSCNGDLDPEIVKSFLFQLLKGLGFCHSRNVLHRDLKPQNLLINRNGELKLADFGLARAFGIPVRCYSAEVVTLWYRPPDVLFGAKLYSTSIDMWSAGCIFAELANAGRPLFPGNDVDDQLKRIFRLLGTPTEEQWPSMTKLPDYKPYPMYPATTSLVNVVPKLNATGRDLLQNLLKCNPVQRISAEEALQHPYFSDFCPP
Sequence of Cyclin-dependent kinase 5/CDK5 activator 1 (Q15078 whole entry, further chain): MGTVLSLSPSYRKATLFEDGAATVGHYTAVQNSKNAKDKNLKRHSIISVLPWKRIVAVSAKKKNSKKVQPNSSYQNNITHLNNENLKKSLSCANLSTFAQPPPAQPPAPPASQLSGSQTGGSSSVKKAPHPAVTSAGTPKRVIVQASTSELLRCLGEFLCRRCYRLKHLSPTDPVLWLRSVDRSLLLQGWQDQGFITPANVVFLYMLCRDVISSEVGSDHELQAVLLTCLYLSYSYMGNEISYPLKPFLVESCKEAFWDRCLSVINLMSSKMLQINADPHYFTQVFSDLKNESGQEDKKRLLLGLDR
Sequence of Neuropeptide Y receptor type 1 (P25929 whole entry): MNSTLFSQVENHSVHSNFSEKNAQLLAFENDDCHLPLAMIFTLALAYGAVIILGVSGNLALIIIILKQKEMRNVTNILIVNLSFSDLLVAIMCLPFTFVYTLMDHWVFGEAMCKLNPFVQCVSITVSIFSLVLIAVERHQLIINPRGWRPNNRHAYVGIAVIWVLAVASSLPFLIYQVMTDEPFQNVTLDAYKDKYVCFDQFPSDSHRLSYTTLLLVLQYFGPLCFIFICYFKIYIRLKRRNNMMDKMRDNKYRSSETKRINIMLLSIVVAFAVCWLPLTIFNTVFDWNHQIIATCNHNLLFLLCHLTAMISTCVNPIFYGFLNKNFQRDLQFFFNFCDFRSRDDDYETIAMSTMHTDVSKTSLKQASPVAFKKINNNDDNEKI
Sequence of X-box-binding protein 1 (P17861 whole entry): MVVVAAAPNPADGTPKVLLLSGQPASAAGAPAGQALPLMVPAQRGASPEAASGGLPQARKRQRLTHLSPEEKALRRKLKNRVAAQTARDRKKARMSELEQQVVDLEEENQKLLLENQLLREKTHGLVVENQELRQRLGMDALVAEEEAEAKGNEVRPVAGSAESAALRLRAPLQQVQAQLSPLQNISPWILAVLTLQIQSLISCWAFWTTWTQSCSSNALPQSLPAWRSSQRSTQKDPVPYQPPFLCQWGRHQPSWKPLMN
Sequence of Metabotropic glutamate receptor 4 (P31423 whole entry): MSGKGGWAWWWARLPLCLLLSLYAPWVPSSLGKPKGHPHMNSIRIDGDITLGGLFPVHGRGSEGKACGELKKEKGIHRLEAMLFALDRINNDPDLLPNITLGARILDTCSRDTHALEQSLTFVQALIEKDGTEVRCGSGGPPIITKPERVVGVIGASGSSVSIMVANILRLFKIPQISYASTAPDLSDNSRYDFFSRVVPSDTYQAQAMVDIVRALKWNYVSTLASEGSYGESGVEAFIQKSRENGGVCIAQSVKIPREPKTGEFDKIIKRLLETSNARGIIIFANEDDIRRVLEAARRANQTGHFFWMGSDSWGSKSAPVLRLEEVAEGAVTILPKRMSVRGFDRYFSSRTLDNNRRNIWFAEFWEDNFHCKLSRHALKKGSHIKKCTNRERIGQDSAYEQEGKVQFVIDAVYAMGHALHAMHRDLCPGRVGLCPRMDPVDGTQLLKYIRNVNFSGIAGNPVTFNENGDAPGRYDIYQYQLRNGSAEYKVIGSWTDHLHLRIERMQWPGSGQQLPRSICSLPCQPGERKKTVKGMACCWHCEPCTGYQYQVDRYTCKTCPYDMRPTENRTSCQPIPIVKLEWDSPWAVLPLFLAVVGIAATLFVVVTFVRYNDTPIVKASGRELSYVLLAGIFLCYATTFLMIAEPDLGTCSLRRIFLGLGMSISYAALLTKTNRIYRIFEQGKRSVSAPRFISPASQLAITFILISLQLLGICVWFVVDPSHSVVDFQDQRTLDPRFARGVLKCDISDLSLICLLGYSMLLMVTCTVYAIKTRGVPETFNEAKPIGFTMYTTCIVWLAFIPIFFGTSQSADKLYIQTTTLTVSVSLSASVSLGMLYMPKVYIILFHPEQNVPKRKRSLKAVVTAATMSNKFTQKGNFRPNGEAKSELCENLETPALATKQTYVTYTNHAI

In the case of `Cc1nn(-c2ccc(Cl)cn2)c2c1C(=O)CC(C)(C)C2Br` (configuration not stated), the AC50 [1] is reported as 89.2 µM (active).
For `COc1ccc(N=C(S)NC(NC(=O)c2cccc(Cl)c2)C(Cl)(Cl)Cl)c([N+](=O)[O-])c1` (configuration not stated), the EC50 (HEK293) was > 35.4 µM (not active), the EC50 [2] was > 35.4 µM (not active) and the EC50 [3] was 1.6 µM (active). The EC50 [4] was 16.7 µM (not active), the EC50 [5] was > 30 µM (not active) and the IC50 [6] was > 66 µM (inactive). The IC50 [7] was > 66 µM (inactive).
With `COc1cc(C(C#N)N2CCOCC2)ccc1O` (configuration not stated) the EC50 [8] was > 55.7 µM (not active) and the EC50 [9] was > 55.7 µM (not active).
For `N=C(N)SCCc1cccc(CCSC(=N)N)c1`, the CC50 [10] was 47.9 µM (active).
For `CC1(C)[C@@H]2C(=O)N(c3ccc(NC(=O)c4ccccn4)cc3Cl)C(=O)[C@@H]21`, the EC50 [11] was 0.69 µM (active).
With `O=C(NCc1ccccc1)c1cc(-c2ccncc2)nc2ccc(S(=O)(=O)N3CCOCC3)cc12` the “Absolute IC50 (XBP1)” value (X-box-binding protein 1) was 10 µM.
In the case of `O=C(CCC(=O)Nc1ccc(Cl)cc1Cl)N/N=C/c1ccc([N+](=O)[O-])o1`, the EC50 [12] is reported as 8.66 µM (inconclusive), the EC50 [13] is reported as > 50 µM (active) and the EC50 [14] is reported as 2.3 µM (active). For the same molecule, the EC50 [3] was < 0.1 µM (active), the CC50 [15] was 17.4 µM (active) and the CC50 [16] was 14 µM (active). For the same molecule, the AC50 [17] was 11.4 µM (active), the AC50 (Trypanosoma cruzi) was < 0.003 µM (active) and the CC50 [18] was > 20 µM (active). For the same molecule, the IC50 (cells [19]) was 0.85 µM (active), the AC50 (INS1) was 15.2 µM (active) and the EC50 (cells [20]) was 0.007 µM (active).
In the case of `O=C(C1=C(O)C(=O)N(CCCN2CCOCC2)C1c1ccc(Cl)cc1)c1cc2ccccc2o1` (configuration not stated), the IC50 [21] is reported as > 39.8 µM (not active) and the IC50 [22] is reported as 5.14 µM (active).

Reference: ChEMBL document CHEMBL1201862, “PubChem BioAssay data set” (2004)
